Reference: US6011000A, “Compositions for the treatment of blood disorders” (priority 1995, dated 2000)

Legend:
[1] = system: HSS-II region of the locus control region (LCR); assay: In vivo footprinting of HSS-II; set-up: species or system human
Protocol: (§1) Erythroid cell-rich fractions were prepared from patients' peripheral blood or bone marrow before and during treatment, and were in vivo methylated using DMS. Ligation-mediated polymerase chain reaction (LM-PCR) was performed (J. L. Mueller et al., Sci. 246:780-86, 1989). Briefly, 3-7 μg of DNA was suspended in 15 μl of solution A (40 mM Tris-HCl, pH 7.7, 50 mM NaCl) containing […] of primer. First-strand synthesis was performed by adding 7.5 μl of solution B (20 mM MgCl2, 20 mM DTT, 60 μM dNTP) and 1.5 μl of 1:4 diluted Sequenase version 2.0 (United States Biochemical; Cleveland, Ohio) with TE and incubating at 50° C. for 10 minutes. The reaction was quenched by heating at 68° C. for 10 minutes, adding 6 μl of 310 mM Tris-HCl, pH 7.7, and subsequently extracting with phenol/chloroform/isoamyl alcohol (25:24:1) and with ether. […] All of the footprints were analyzed two or more times to ensure reproducibility.
Several lines of evidence obtained from DNA transfection and transgenic experiments have corroborated the functional importance of HSS-II of the LCR in regulating β-like globin gene expression. […] In view of these observations, the patterns of in vivo footprints of HSS-II in erythroid cell preparations that were obtained from pre-treatment and post-treatment blood samples were analyzed. […]

[2] = system: γ-globin gene promoter; assay: In vivo footprinting of the γ-globin promoter; set-up: species or system human
Protocol: To determine whether this increase was due to the transcriptional modulation of the γ-globin genes and, if so, to examine whether protein-DNA interactions of regulatory sequences for γ-globin gene expression have been changed, in vivo footprinting analysis of the γ-globin gene promoter and HSS-II region of the locus control region (LCR) were performed. […] Compared to conventional in vitro footprinting methods, which are ordinarily employed to analyze protein-DNA interactions for promoter regions and fail to disclose tissue-specific binding of nuclear proteins to cis-acting elements, in vivo footprinting technique is able to provide bona fide information on transcription factors binding to cis-acting elements that reflects in vivo situations.
as §1
In the γ-globin gene promoter, a DNA fragment extending up to -200 bp relative to the transcription start site is sufficient to direct efficient transcription of the γ-globin genes (K. T. McDonagh et al., J. Biol. Chem. 266:11965-74, 1991; M. J. Urich Blood 75:990-99, 1990). […] Erythroblasts from a patient with sickle cell anemia, before and after butyrate treatment were analyzed. […]

[3] = system: BFU-e (burst forming unit-erythroid); assay: BFU-e stimulation (colony growth) in cultured peripheral blood mononuclear cells; format: cell-based; settings: Homo sapiens, PBMC, read-out: more BFU-e colonies from the same number of mononuclear cells than control cultures
Protocol: Peripheral blood was collected from normal volunteers and patients with anemia due to sickle cell disease or thalassemia Mononuclear cells were isolated by Ficoll-Hypaque (Pharmacia Biotech; Piscataway, N.J.) centrifugation and cultured in Iscove's Modified Dulbecco's Media (IMDM; GIBCO/BRL; Grand Island, N.Y.) supplemented with 10% fetal calf serum, 300 μg/ml glutamine, 3 units/ml IL 3 (Amgen; Thousand Oaks, Calif.), and 2 units/ml erythropoietin (Terry Fox Labs; Vancouver, B.C.). Chemical compounds were obtained from Sigma Chemical (St. Louis, Mo.) or Aldrich Chemical (Milwaukee, Wis.), unless otherwise indicated, and formulated into pharmaceutical compositions by dissolving in aqueous solutions of media or sterile water pH adjusted to about 7.4. Solutions were sterilized by passage at least once through 0.22 micron Nalgene filters and added to cell cultures at final concentrations that are pharmaceutically achievable in vivo (typically between about 0.1 mM to 2.0 MM). Cells were incubated with compounds for between 13-14 days at 37° C. in humidified 5% CO2, and fed and passed, as necessary. Colony growth, proportion of fetal globin-expressing cells and amounts of fetal globin production were assayed. Results are presented in Table 1 as BFU-e stimulation (colony growth). […]

SMILES | footprints over HSS-II ([1]; erythroblasts of treated sickle cell patient (FIG. 15)) | region of new protection upstream of the GATA-1 binding sequence ([1]; treated patients (FIG. 15)) | footprints in the γ-globin promoter ([2]; erythroblasts of a sickle cell anemia patient, post-treatment (FIG. 13)) | induction of transcription factors interacting with the γ-globin gene promoter ([2]; sickle cell anemia patient) | degree of protection on G residues in FRE-γ1 ([2]; β-thalassemia and sickle cell anemia patients (FIG. 14)) | activation at 100 µM [3] [%]
CCCC(=O)O [AB, arginine butyrate] | novel in vivo footprints that were not seen in a pre-treatment sample became apparent | about 40 bp | four major footprints in the fetal response elements | induces multiple transcription factors which interact with the γ-globin gene promoter, resulting in activation | consistently increased | 
O=C(O)COc1ccccc1 [PAA, Phenoxyacetic acid] |  |  |  |  |  | 135
